{
  "source": "patent US5538973A",
  "about": "“Imidazole derivative, pharmaceutical use thereof, and intermediate therefor” (Kyoto Pharmaceutical Industries, Ltd., priority 1992, dated 1996)",
  "key": {"[1]": {"test_system": "airway contraction by LTD4", "assay": "Inhibitory action on contraction of respiratory tract by LTD4 (Konzett and Roessler method)", "type": "in vivo, guinea pig", "conditions": "for inhibition in vivo at 30 mg/kg: Cavia porcellus, po, 1 h, read-out: Exp. 4-2 % at which the test compound suppressed airway contraction by LTD4", "experimental": "(§1) A respiratory tract contraction (histamine, LTD4) was intravenously administered to anesthetized guinea pig, and a change in airway resistance was measured in accordance with Konzett end Roessler method. The test drug was orally administered 1 hour before the administration of the contraction inducing agent.\n(§2) The experiments 1-4 described above were conducted using the compounds of Examples 1, 2, 6, 8, 12, 14, 19, 23, 27, 30, 34, and 35 to be mentioned below, compound (V), and Terfenadine, the results of which are shown in Table 1.\n(§3) **% at which the test compound (30 mg/kg, p.o.) suppressed airway\n(§4) contraction by histamine (41) or LTD4 (42)"}, "[2]": {"test_system": "airway contraction by histamine", "assay": "Inhibitory action on contraction of respiratory tract by histamine (Konzett and Roessler method)", "type": "in vivo, guinea pig", "conditions": "for inhibition in vivo at 30 mg/kg: Cavia porcellus, po, 1 h, read-out: Exp. 4-1 % at which the test compound suppressed airway contraction by histamine", "experimental": "as §1, §2, §3, §4"}, "[3]": {"test_system": "contraction of lung parenchymal specimen by histamine", "assay": "Antihistaminic action: contraction of lung parenchymal specimen caused by histamine", "type": "cell-based", "conditions": "test compound 10^-5 M, histamine 10^-5 M, guinea pig lung parenchyma; for inhibition at 10 µM: Cavia porcellus, read-out: Exp. 3 % at which the test compound suppressed contraction by histamine", "experimental": "A lung parenchymal specimen extracted from guinea pig was hung in a nutritive solution at 37° C., and applied a load of 0.5 g. Contraction caused by histamine under aeration of 95% O2 +5% CO2 was recorded isometrically. The inhibition by the test drug with respect to the dose-reaction curve by histamine at 10^-7 -10^-4 was examined.\nas §2\n*% at which the test compound (10^-5 M) suppressed contraction by […]"}, "[4]": {"test_system": "blood platelet aggregation", "assay": "Inhibitory action on blood platelet aggregation (arachidonic acid aggregation in rich platelet plasma, nephelometry)", "type": "cell-based", "conditions": "arachidonic acid 0.1 mM, test drug added 1 minute before, read-out: Exp. 2 (IC50) inhibitory action on blood platelet aggregation", "experimental": "Arachidonic acid aggregation in rich platelet plasma was determined by nephelometry. The test drug was added 1 minute before the addition of the arachidonic acid (0.1 mM).\nas §2"}, "synthesis of TXA2": {"test_system": "synthesis of TXA2", "assay": "Inhibitory action on synthesis of TXA2 (PGH2 substrate, aspirin-treated platelets, TXB2 by RIA)", "type": "cell-based", "conditions": "Platelet, read-out: Exp. 1 (IC50) inhibitory action on synthesis of TXA2", "experimental": "Prostaglandin H2 (PGH2) was added as a substrate to an aspirin-treated platelet floating solution, and the mixture was incubated at 37° C. The resultant TXA2 was converted to TXB2, and measured by RIA method. The test drug was added 10 minutes before the addition of PGH2.\nas §2"}, "male ddy mice": {"test_system": "male ddy mice", "assay": "Acute toxicity, oral, male ddy mice", "type": "in vivo", "conditions": "1000 mg/20 ml/kg orally, 5 male ddy mice", "experimental": "The compound of Example 6 was suspended in a 5% gum arabic solution and orally administered to 5 male ddy mice at 1000 mg/20 ml /kg."}, "[5]": {"conditions": "30 mg/kg, p.o., 1 hour before LTD4 i.v., anesthetized guinea pig"}, "[6]": {"conditions": "30 mg/kg, p.o., 1 hour before histamine i.v., anesthetized guinea pig"}, "[7]": {"conditions": "test drug added 10 minutes before PGH2, 37° C."}},
  "note": "Counter-ions that a name gives are not always drawn. Like-named read-outs stand apart in the source and are kept apart here.",
  "data": [
    {"compound": "CC(C)(C)c1ccc(C(O)CCCN2CCC(C(O)(c3ccccc3)c3ccccc3)CC2)cc1", "note": "(centres unmarked) [Terfenadine, reference compound]", "values": [
      {"measurement": "inhibition in vivo at 30 mg/kg", "setting": "[1]; [5]", "value": 27, "unit": "%"},
      {"measurement": "inhibition in vivo at 30 mg/kg", "setting": "[2]; [6]", "value": 100, "unit": "%"},
      {"measurement": "inhibition at 10 µM", "setting": "[3]", "value": 48, "unit": "%"}
    ]},
    {"compound": "O=C(N1CCN(CCOC(c2ccccc2)c2ccccc2)CC1)N1CCc2cc(Cn3ccnc3)ccc21", "note": "[Example 12]", "values": [
      {"measurement": "inhibition in vivo at 30 mg/kg", "setting": "[1]", "value": 64, "unit": "%"},
      {"measurement": "inhibition in vivo at 30 mg/kg", "setting": "[2]", "value": 100, "unit": "%"},
      {"measurement": "IC50", "setting": "[4]; Platelet", "value": 18, "unit": "µM"},
      {"measurement": "inhibition at 10 µM", "setting": "[3]", "value": 61, "unit": "%"}
    ]},
    {"compound": "O=C(O)c1cc2cc(Cn3ccnc3)ccc2n1CCCN1CCN(C(c2ccccc2)c2ccccc2)CC1", "note": "[Example 23]", "values": [
      {"measurement": "Exp. 4-2 % at which the test compound suppressed airway contraction by LTD4", "setting": "[1]; [5]", "value": 53, "unit": "%"},
      {"measurement": "Exp. 4-1 % at which the test compound suppressed airway contraction by histamine", "setting": "[2]; [6]", "value": 94, "unit": "%"},
      {"measurement": "IC50", "setting": "[4]; listed as Ex. 23", "value": 34, "unit": "µM"},
      {"measurement": "Exp. 3 % at which the test compound suppressed contraction by histamine", "setting": "[3]; 10 µM", "value": 94, "unit": "%"}
    ]},
    {"compound": "O=C(N1CCN(CCOC(c2ccccc2)c2ccccc2)CC1)N1CCc2cc(-n3ccnc3)ccc21", "note": "[Example 2, 1-{4-[(2-benzhydryloxyethyl)-1-piperazinyl]-carbonyl}-5-(1H-imidazol-1-yl)indoline oxalate]", "values": [
      {"measurement": "inhibition in vivo at 30 mg/kg", "setting": "[1]", "value": 83, "unit": "%"},
      {"measurement": "inhibition in vivo at 30 mg/kg", "setting": "[2]", "value": 100, "unit": "%"},
      {"measurement": "IC50", "setting": "synthesis of TXA2", "value": 1.5, "unit": "µM"},
      {"measurement": "IC50", "setting": "[4]; Platelet", "value": 4.7, "unit": "µM"},
      {"measurement": "inhibition at 10 µM", "setting": "[3]", "value": 66, "unit": "%"}
    ]},
    {"compound": "O=C(CN1CCN(CCOC(c2ccccc2)c2ccccc2)CC1)N1CCc2cc(Cn3ccnc3)ccc21", "note": "[Example 14]", "values": [
      {"measurement": "inhibition in vivo at 30 mg/kg", "setting": "[1]", "value": 42, "unit": "%"},
      {"measurement": "inhibition in vivo at 30 mg/kg", "setting": "[2]", "value": 100, "unit": "%"},
      {"measurement": "IC50", "setting": "[4]; Platelet", "value": 58, "unit": "µM"},
      {"measurement": "inhibition at 10 µM", "setting": "[3]", "value": 45, "unit": "%"}
    ]},
    {"compound": "c1ccc(CC2CCN(CCn3ccc4cc(-n5ccnc5)ccc43)CC2)cc1", "note": "[Example 27]", "values": [
      {"measurement": "inhibition in vivo at 30 mg/kg", "setting": "[1]; [5]", "value": 68, "unit": "%"},
      {"measurement": "inhibition in vivo at 30 mg/kg", "setting": "[2]; [6]", "value": 100, "unit": "%"},
      {"measurement": "IC50", "setting": "[4]; Platelet", "value": "> 100", "unit": "µM"},
      {"measurement": "inhibition at 10 µM", "setting": "[3]", "value": 58, "unit": "%"}
    ]},
    {"compound": "c1ccc(C(c2ccccc2)N2CCN(CCCn3ccc4cc(-n5ccnc5)ccc43)CC2)cc1", "note": "[Example 19]", "values": [
      {"measurement": "inhibition in vivo at 30 mg/kg", "setting": "[1]; [5]", "value": 40, "unit": "%"},
      {"measurement": "inhibition in vivo at 30 mg/kg", "setting": "[2]; [6]", "value": 94, "unit": "%"},
      {"measurement": "IC50", "setting": "[4]; Platelet", "value": 21, "unit": "µM"},
      {"measurement": "inhibition at 10 µM", "setting": "[3]", "value": 45, "unit": "%"}
    ]},
    {"compound": "Cl.Cl.Cl.O=C(O)c1cc2cc(Cn3ccnc3)ccc2n1CCCN1CCN(C(c2ccccc2)c2ccccc2)CC1", "note": "[Example 6, 1-[3-(4-benzhydryl-1-piperazinyl)propyl]-5-(1H-imidazol-1-ylmethyl)-1H-indole-2-carboxylic acid trihydrochloride]", "values": [
      {"measurement": "Exp. 4-2 % at which the test compound suppressed airway contraction by LTD4", "setting": "[1]; [5]", "value": 75, "unit": "%"},
      {"measurement": "death", "setting": "male ddy mice", "value": "No death was observed"},
      {"measurement": "inhibition in vivo at 30 mg/kg", "setting": "[2]; [6]", "value": 100, "unit": "%"},
      {"measurement": "IC50", "setting": "synthesis of TXA2; [7]", "value": 0.4, "unit": "µM"},
      {"measurement": "IC50", "setting": "[4]; listed as Ex. 6, trihydrochloride", "value": 8.1, "unit": "µM"},
      {"measurement": "inhibition at 10 µM", "setting": "[3]", "value": 100, "unit": "%"}
    ]},
    {"compound": "O=C(O)c1ccc2c(c1)c(CCn1ccnc1)cn2CCCN1CCN(CCOC(c2ccccc2)c2ccccc2)CC1", "note": "[Example 35]", "values": [
      {"measurement": "inhibition in vivo at 30 mg/kg", "setting": "[1]", "value": 18, "unit": "%"},
      {"measurement": "inhibition in vivo at 30 mg/kg", "setting": "[2]", "value": 100, "unit": "%"},
      {"measurement": "IC50", "setting": "[4]; Platelet", "value": 71, "unit": "µM"},
      {"measurement": "inhibition at 10 µM", "setting": "[3]", "value": 100, "unit": "%"}
    ]},
    {"compound": "O=C(O)c1ccc2c(Cn3ccnc3)cn(CCCN3CCC(Cc4ccccc4)CC3)c2c1", "note": "[Example 30]", "values": [
      {"measurement": "inhibition in vivo at 30 mg/kg", "setting": "[1]; [5]", "value": 26, "unit": "%"},
      {"measurement": "inhibition in vivo at 30 mg/kg", "setting": "[2]; [6]", "value": 100, "unit": "%"},
      {"measurement": "IC50", "setting": "[4]; Platelet", "value": 9.9, "unit": "µM"},
      {"measurement": "inhibition at 10 µM", "setting": "[3]", "value": 100, "unit": "%"}
    ]},
    {"compound": "O=C(CN1CCN(CCOC(c2ccccc2)c2ccccc2)CC1)N1CCc2cc(-n3ccnc3)ccc21", "note": "[Example 8]", "values": [
      {"measurement": "inhibition in vivo at 30 mg/kg", "setting": "[1]", "value": 87, "unit": "%"},
      {"measurement": "inhibition in vivo at 30 mg/kg", "setting": "[2]", "value": 100, "unit": "%"},
      {"measurement": "IC50", "setting": "[4]; Platelet", "value": 2.1, "unit": "µM"},
      {"measurement": "inhibition at 10 µM", "setting": "[3]", "value": 55, "unit": "%"}
    ]},
    {"compound": "O=C(O)C=Cc1ccc(Cn2ccnc2)cc1", "note": "[Compound (V), reference compound]", "values": [
      {"measurement": "inhibition in vivo at 30 mg/kg", "setting": "[1]; [5]", "value": 57, "unit": "%"},
      {"measurement": "inhibition in vivo at 30 mg/kg", "setting": "[2]; [6]", "value": 4, "unit": "%"},
      {"measurement": "IC50", "setting": "synthesis of TXA2; [7]", "value": 1.5, "unit": "µM"},
      {"measurement": "IC50", "setting": "[4]; Platelet", "value": 54, "unit": "µM"},
      {"measurement": "inhibition at 10 µM", "setting": "[3]", "value": 8, "unit": "%"}
    ]},
    {"compound": "O=C(COCCN1CCN(C(c2ccccc2)c2ccccc2)CC1)N1CCc2cc(-n3ccnc3)ccc21", "note": "[Example 1, 1-[2-(4-benzhydryl-1-piperazinyl)ethoxyacetyl]-5-(1H-imidazol-1-yl)indoline oxalate]", "values": [
      {"measurement": "inhibition in vivo at 30 mg/kg", "setting": "[1]; [5]", "value": 73, "unit": "%"},
      {"measurement": "inhibition in vivo at 30 mg/kg", "setting": "[2]; [6]", "value": 100, "unit": "%"},
      {"measurement": "IC50", "setting": "[4]; Platelet", "value": 4.4, "unit": "µM"},
      {"measurement": "inhibition at 10 µM", "setting": "[3]", "value": 95, "unit": "%"}
    ]},
    {"compound": "O=C(O)c1ccc2c(c1)c(CCn1ccnc1)cn2CCCN1CCC(Cc2ccccc2)CC1", "note": "[Example 34]", "values": [
      {"measurement": "inhibition in vivo at 30 mg/kg", "setting": "[1]; [5]", "value": 31, "unit": "%"},
      {"measurement": "inhibition in vivo at 30 mg/kg", "setting": "[2]; [6]", "value": 90, "unit": "%"},
      {"measurement": "IC50", "setting": "[4]; Platelet", "value": "> 100", "unit": "µM"},
      {"measurement": "inhibition at 10 µM", "setting": "[3]", "value": 58, "unit": "%"}
    ]}
  ]
}
